Assay results: US20240317865A1, “ANTIBODIES AGAINST INTEGRIN ALPHA 11 BETA 1” (MOMENTA PHARMACEUTICALS, INC., priority 2020, published 2024)

Tested on: A549 cell xenografts
Test: Tumor xenograft model
Format: in vivo, C.B-17 SCID mice
Conditions: docetaxel 10 mg/kg every 4 days, 6 doses
Description: Fifty-six female C.B-17 SCID mice were inoculated with A549 cells (5×10^6 cells/mouse) subcutaneously in the flank. Once tumor volume reached ˜100 mm^3, animals were randomized amongst 7 groups of 8 mice each. Mice were then treated intraperitonealy every 3 days for a total of 7 doses with isotype controls or novel mAbs 79E3E3, 16E10 and 9G04 (2 and 20 mg/kg) or with docetaxel at 10 mg/kg every 4 days for a total of 6 doses. Tumor volumes and body weights were recorded twice a week with a gap of 2-3 days in between two measurements until any of the following conditions defined were observed: loss of 20% or more body weight; tumors that inhibit normal physiological function such as eating, drinking, and mobility; ulcerated tumors; tumor size greater than 2000 mm^3 and clinical observations of prostration, paralysis, seizures and hemorrhages.
In this example, studies were performed to determine if inhibition of α11β1 function with mAb results in xenograft growth inhibition. As shown in FIG. 16 and Table 4, blocking α11β1 on mouse CAFs impeded xenograft growth in SCID mice.

Question: For CC(=O)O[C@@]12CO[C@@H]1C[C@H](O)[C@@]1(C)C(=O)[C@H](O)C3=C(C)[C@@H](OC(=O)[C@H](O)[C@@H](NC(=O)OC(C)(C)C)c4ccccc4)C[C@@](O)([C@@H](OC(=O)c4ccccc4)[C@H]21)C3(C)C [Docetaxel, docetaxel, reference compound], which “Days to Volume Doubling (ave, 95% CI)” value is on record?
Answer: Its value is 11.0 (10.0, 12.0) Days.
